Results published in US20070059242A1, “METHODS TO IDENTIFY THERAPEUTIC AGENTS” (priority 2005, published 2007).
Read-outs that look alike come from different tables or passages of the source.

Experiments:
ICAM-1 = experiment: Endothelial adhesion molecule expression ELISA, ICAM-1; type: cell-based, human; conditions: for integrin (ICAM-1) expression: HAAE-1, not complexed with LDL
Description: (§1) Endothelial cell surface adhesion molecule expression was measured by ELISA, using anti-human CD54 (ICAM-1), CD106 (VCAM-1) and CD62E (E-Selectin) antibodies (Leinco Technologies, Inc., St. Louis, Mo.). The ELISA method was modified from previously described procedures.
(§2) Cells were then incubated with antibodies to VCAM-1, E-selectin, or ICAM-1 diluted 1:400 in PBS containing 5% FCS at 37° C. for 30 min. Wells were washed two times with PBS, then incubated with horseradish peroxidase (HRP)-conjugated goat anti-mouse IgG (Southern Biotechnology Associates, Birmingham, Ala., USA) in PBS/5% FCS at 37° C. for 30 min. The wells were washed four times with PBS, then incubated with H2O2/3,3′,5,5′-tetramethyl-benzidine peroxidase substrate (Pierce Chemical, Rockford, Ill., USA) for 30 min in the dark. The reaction was stopped by adding 25 μl of 8 N H2SO4, and the plates read on a microplate reader, blanking on wells stained with only secondary antibody. Each assay was performed in triplicate and the data are reported as the mean±SEM as a percentage of the expression level of the vehicle. To study the effect of cholesterol ozonation product 5a concentration (5-50 μM) on E-selectin expression, the assay was performed in an identical fashion as described above, with each point being the mean±SEM of at least duplicate measurements.

[1] = test system: J774A.1 murine tissue macrophage line; experiment: LDH release cytotoxicity assay, J774A.1; type: cell-based
Description: (§3) Cytotoxicity assays. WI-L2 human B-lymphocyte line, HAAE-1 human abdominal aortic endothelial line, MH-S murine alveolar macrophage line, and J774A.1 murine tissue macrophage line were obtained from the ATCC. Human aortic endothelial cells (HAEC) and human vascular smooth muscle cells (VSMS) were obtained from Cambrex Bio Science. Jurkat E6-1T-lymphocytes were kindly provided by Dr. J. Kaye (The Scripps Research Institute). Cells were cultured in ATCC-recommended media with 10% fetal calf serum. Cells were incubated in a controlled atmosphere at 37° C., with 5 or 7% CO2. For lactate dehydrogenase (LDH) release assays, adherent cells were harvested either by addition of 0.05% trypsin/EDTA or by scraping. The cells obtained were seeded onto 96-well microtiter plates (25,000 cells/well) and allowed to recover for 24-48 h. […] Cytotoxicity was then determined by measuring lactate dehydrogenase (LDH) release from cells in culture. […] 100% Cytotoxicity was defined as the maximum amount of LDH released by dead cells as shown by trypan blue exclusion, or the highest amount of LDH detected upon lysis of cells by 0.9% Triton X-100. The IC50 values were determined by comparison of the raw duplicate data for concentration versus cytotoxicity (%) to non-linear regression analysis (Hill plot) using Graphpad v3.0 software for Macintosh.

[2] = test system: WI-L2 human B-lymphocyte line; experiment: LDH release cytotoxicity assay, WI-L2; type: cell-based; conditions: Homo sapiens; WIL2; LDH release, 0-100 μM, 18 h
Description: Cytotoxicity assays. WI-L2 human B-lymphocyte line, HAAE-1 human abdominal aortic endothelial line, MH-S murine alveolar macrophage line, and J774A.1 murine tissue macrophage line were obtained from the ATCC. Human aortic endothelial cells (HAEC) and human vascular smooth muscle cells (VSMS) were obtained from Cambrex Bio Science. Jurkat E6-1T-lymphocytes were kindly provided by Dr. J. Kaye (The Scripps Research Institute). Cells were cultured in ATCC-recommended media with 10% fetal calf serum. Cells were incubated in a controlled atmosphere at 37° C., with 5 or 7% CO2. For lactate dehydrogenase (LDH) release assays, adherent cells were harvested either by addition of 0.05% trypsin/EDTA or by scraping. The cells obtained were seeded onto 96-well microtiter plates (25,000 cells/well) and allowed to recover for 24-48 h. Cells were washed gently and media replaced with fresh media containing 5% fetal calf serum. […] Cytotoxicity was then determined by measuring lactate dehydrogenase (LDH) release from cells in culture. […] 100% Cytotoxicity was defined as the maximum amount of LDH released by dead cells as shown by trypan blue exclusion, or the highest amount of LDH detected upon lysis of cells by 0.9% Triton X-100. The IC50 values were determined by comparison of the raw duplicate data for concentration versus cytotoxicity (%) to non-linear regression analysis (Hill plot) using Graphpad v3.0 software for Macintosh.
The following cell lines were employed in this study: a human B-lymphocyte (WI-L2) described in Levy et al., Cancer 22, 517 (1968); a T-lymphocyte cell line (Jurkat E6.1) described in Weiss et al., J. Immunol. 133, 123 (1984); a vascular smooth muscle cell line (VSMC) and an abdominal aorta endothelial (HAEC) cell line described in Folkman et al., Proc. Natl. Acad. Sci. U.S.A. 76, 5217 (1979); a murine tissue macrophage (J774A.1) described in Ralph et al., J. Exp. Med. 143, 1528 (1976); and an alveolar macrophage cell line (MH-S) described in Mbawuike et al., J. Leukoc. Biol. 46, 119 (1989).

[3] = test system: Human aortic endothelial cells (HAEC); experiment: LDH release cytotoxicity assay, HAEC; type: cell-based; conditions: Endothelial cell, 18 h
Description: as §3, with “Macintosh. […]” for “Macintosh.”

[4] = test system: T-lymphocyte cell line (Jurkat E6.1); experiment: LDH release cytotoxicity assay, Jurkat; type: cell-based; conditions: Homo sapiens; Jurkat E6.1; LDH release, 0-100 μM, 18 h
Description: as §3, with “Macintosh. […]” for “Macintosh.”

[5] = Loss of extractable 5a from stored plasma; conditions: preliminary investigations
Description: Plasma samples were obtained from patients (n=8) who were scheduled to undergo carotid endarterectomy within 24 h. […] Control plasma samples were obtained from random patients (n=15) attending a general medical clinic and were analyzed 7 days after collection. In a typical procedure, plasma in EDTA (1 ml) was washed with dichloromethane (DCM, 3×1 mL). The combined organic fractions were evaporated in vacuo. The residue was dissolved in methanol (0.9 mL) and a solution of 2,4-dinitrophenyl hydrazine (100 μL, 0.01 M, Lancaster) and 1N HCl in ethanol was added. Nitrogen was bubbled through the solution for 5 min and then the solution was stirred for 2 h. The resultant solution was filtered through a 0.22 μm filter and the filtrate was analyzed by the HPLC assay vide supra.

VCAM-1 = experiment: Endothelial adhesion molecule expression ELISA, VCAM-1; type: cell-based, human; conditions: for integrin (VCAM-1) expression: HAAE-1, not complexed with LDL
Description: as §1, §2

[6] = Aldolization of 4a with atherosclerotic artery and blood fractions (1H NMR); type: in vitro ADME, human
Description: Aldolization of secoketoaldehyde 4a with atherosclerotic artery and blood fractions. […] To this solution was added either a) atherosclerotic artery (2.1 mg) that had been homogenized in PBS (1 ml) in a tissue homogenizer and then lyophilized to dryness, b) lyophilized human blood (1 ml), c) lyophilized human plasma (1 ml) or d) PBS lyophilized (1 ml). At time points samples were removed and analyzed by ^1H NMR vide supra.

[7] = Aldolization of ketoaldehyde 4a with amino acids (1H NMR); type: physicochemical
Description: Aldolization of ketoaldehyde 4a with amino acids. […] To this solution was added 1 equivalent of either: a) L-proline, b) glycine, c) L-lysine hydrochloride or d) L-lysine ethyl ester dihydrochloride. At time points the samples were analyzed by ^1H NMR.

[8] = HAAE-1, 25 μM in the presence of LDL, or lipoprotein alone

Compound: CC(C)CCC[C@@H](C)[C@H]1CCC2C3C(CC[C@@]21C)[C@@]1(C)CC[C@H](O)C[C@@]1(O)[C@@H]3C=O (stereo partly drawn) [5a, 3β-Hydroxy-5β-hydroxy-B-norcholestane-6β-carboxaldehyde]
- integrin (ICAM-1) expression (ICAM-1): no effects
- IC50 ([1]; Mus musculus, J774.A1, 18 h): 26.1 ± 2.8 µM
- IC50 [2]: 17.7 ± 2.3 µM
- IC50 [3]: 18.2 ± 1.9 µM
- IC50 [4]: 12.6 ± 1.9 µM
- decrease of amount that can be extracted from plasma [5]: about 5 % per day
- integrin (VCAM-1) expression (VCAM-1): no effects

Compound: CC(C)CCC[C@@H](C)[C@H]1CCC2C(CC=O)C([C@@]3(C)CC[C@H](O)CC3=O)CC[C@@]21C (stereo partly drawn) [4a, 3β-Hydroxy-5-oxo-5,6-secocholestan-6-al]
- ICAM-1 levels (ICAM-1; [8]): remain unchanged
- integrin (ICAM-1) expression (ICAM-1): no effects
- conversion of 4a into 5a ([6]; extracts from atheromatous arteries, 22 h): complete conversion
- aldolization of 4a ([6]; lyophilized PBS): no aldolization
- conversion of 4a into 5a ([6]; plasma, 15 h): complete conversion
- conversion of 4a into 5a ([6]; serum, 15 h): complete conversion
- conversion of 4a into 5a ([6]; whole blood, 15 h): complete conversion
- IC50 ([1]; J774A.1, LDH release, 0-100 μM, 18 h, read-out: IC50): 15.6 ± 2.1 µM
- IC50 [2]: 10.9 ± 1.6 µM
- IC50 ([3]; HAEC, LDH release, 0-100 μM, read-out: IC50): 24.6 ± 3.2 µM
- aldolization of 4a ([7]; DMSO-d6 (800 μl) and D2O (80 μl) alone): no aldolization
- conversion of 4a into 5a ([7]; Gly, 24 h): complete conversion
- conversion of 4a into 5a ([7]; L-Lys(OEt).2HCl, 100 h): 62%
- conversion of 4a into 5a ([7]; L-Lys.HCl, 24 h): complete conversion
- conversion of 4a into 5a ([7]; L-Pro, 2 h): complete conversion
- VCAM-1 levels (VCAM-1; [8]): remain unchanged
- integrin (VCAM-1) expression (VCAM-1): no effects
